Data from patent US20090246185A1, “CARDIAC DYSFUNCTION-AMELIORATING AGENT OR CARDIAC FUNCTION-MAINTAINING AGENT” (KANEKA CORPORATION, priority 2006, published 2009).
Marks after values point to notes of the source that are not given here.

Legend:
[1] = system: ischemia-reperfusion model; test: Heart weight (body weight ratio) in rat ischemia-reperfusion model; assay type: in vivo; conditions: for body weight ratio of heart weight: left atrium / body weight ratio of heart weight: left ventricle / body weight ratio of heart weight: right atrium / body weight ratio of heart weight: right ventricle: male SD rats, ischemia-reperfusion, 30 mg/kg per day oral in corn oil, 5 weeks, average; for effect on increase in heart weight (edema), in words: rat ischemia-reperfusion model, 30 mg/kg per day oral, vs. control group
Method: (§1) Male SD rats (9-week-old, Japan SLC Inc.) were divided into four groups. Each rat was anesthetized with pentobarbital sodium (35-45 mg/kg, i.p.), and fixed at the dorsal position. A tracheal tube was orally inserted into the airway, artificial respiration was performed by an artificial respirator for small animals, and the medial wall of the thorax was opened to expose the heart. In three groups, the left anterior descending artery (LAD) was obstructed for 30 min with a surgical needle with a thread. At this time, an electrocardiogram was measured via an amplifier for electrocardiogram, and the presence or absence of occlusion was confirmed based on the changes in the ST electrical potential and cardiac muscle color. An ischemia-reperfusion model was prepared by reperfusing the blood flow after 30 min from the occlusion. Thereafter, in all groups, the thorax was closed, sutured, and disinfected with a veterinary Isodine solution.
(§2) The following samples were administered to each group for 1 week before the above-mentioned operation and 4 weeks after the operation (total 5 weeks).
(§3) Group for which occlusion treatment was performed, and oxidized coenzyme Q10 dissolved in corn oil was orally administered at a dosage of 30 mg/kg per day based on the amount of oxidized coenzyme Q10
(§4) Group for which occlusion treatment was performed, and […] dissolved in corn oil was orally administered at a dosage of 30 mg/kg per day based on the amount of reduced coenzyme Q10
After cardiac function evaluation, the animals were euthanized by dislocation of cervical spine under anesthesia, and the heart was removed. The right atrium weight, left atrium weight, right ventricle weight, left ventricle weight and overall weight of the heart (weight of both atria+weight of both ventricles) were measured. For evaluation, the body weight ratio of the right atrium weight, the body weight ratio of the left atrium weight, the body weight ratio of the right ventricle weight and the body weight ratio of the left ventricle weight were calculated.

rats = conditions: 1200 mg/kg/day consecutive administration for 52 weeks; cited from earlier work
[2] = system: ischemia-reperfusion model; test: Cardiac function evaluation (left ventricular end-diastolic pressure) in rat ischemia-reperfusion model; assay type: in vivo; conditions: for left ventricle end-diastolic pressure: male SD rats, LAD occlusion 30 min then reperfusion, 30 mg/kg per day oral in corn oil, 1 week before and 4 weeks after operation, mean ± standard error; for effect on elevation of the end-diastolic pressure (cardiac function), in words: rat ischemia-reperfusion model, 30 mg/kg per day oral, vs. control group
Method: as §1, §2, §3, §4
After measuring the body weight on the next day of the final administration, the rats were fixed at the dorsal position under pentobarbital sodium (25-35 mg/kg, i.p.) anesthesia, and a mirror catheter was inserted into the right carotid artery. After confirmation of the stable condition, the left ventricle internal pressure wave pattern was led to a biological electric amplifier to enlarge same, and the left ventricular end-diastolic pressure (LVEDP) was measured.

[3] = Absorbability evaluation: total coenzyme Q10 in plasma and heart by HPLC; conditions: male SD rats, 100 mg/kg oral in soybean oil once a day for 4 weeks; average, N=3
Method: Male SD rats (5-week-old, Japan SLC Inc.) were each orally administered with soybean oil (control group), oxidized coenzyme Q10 (100 mg/kg) dissolved in soybean oil (oxidized coenzyme Q10 group) and reduced coenzyme Q10 (containing 1 wt % of oxidized coenzyme Q10; 100 mg/kg) dissolved in soybean oil (reduced coenzyme Q10 group) once a day for 4 consecutive weeks (each group N=3). After completion of the administration, blood samples were taken and the heart was removed, and the total amount of coenzyme Q10 (total amount of oxidized coenzyme Q10 and reduced coenzyme Q10) in plasma and heart was quantified by HPLC according to a conventional method.

COC1=C(OC)C(=O)C(C/C=C(\C)CC/C=C(\C)CC/C=C(\C)CC/C=C(\C)CC/C=C(\C)CC/C=C(\C)CC/C=C(\C)CC/C=C(\C)CC/C=C(\C)CCC=C(C)C)=C(C)C1=O [oxidized coenzyme Q10, reference compound]
body weight ratio of heart weight: left atrium [1]: 0.081
body weight ratio of heart weight: left ventricle [1]: 1.823
body weight ratio of heart weight: right atrium [1]: 0.135
body weight ratio of heart weight: right ventricle [1]: 0.498
effect on increase in heart weight (edema), in words [1]: suppressed increase in the heart weight in all parts
toxic influence in chronic toxicity test (rats): did not show a toxic influence
left ventricle end-diastolic pressure [2]: 8.3 ± 0.7 mmHg
effect on elevation of the end-diastolic pressure (cardiac function), in words [2]: did not provide an ameliorating effect

COc1c(O)c(C)c(C/C=C(\C)CC/C=C(\C)CC/C=C(\C)CC/C=C(\C)CC/C=C(\C)CC/C=C(\C)CC/C=C(\C)CC/C=C(\C)CC/C=C(\C)CCC=C(C)C)c(O)c1OC [reduced coenzyme Q10]
body weight ratio of heart weight: left atrium [1]: 0.089
body weight ratio of heart weight: left ventricle [1]: 1.879
body weight ratio of heart weight: right atrium [1]: 0.146
body weight ratio of heart weight: right ventricle [1]: 0.508
effect on increase in heart weight (edema), in words [1]: suppressed increase in the heart weight in all parts
total coenzyme Q10 concentration in heart [3]: 9.33 µg/mL
total coenzyme Q10 concentration in plasma [3]: 0.39* μg/ml
left ventricle end-diastolic pressure [2]: 5.7 ± 0.4 mmHg
effect on elevation of the end-diastolic pressure (cardiac function), in words [2]: significant suppression of elevation of the end-diastolic pressure
